The source made the active and inactive calls. The rule behind the calls is not given here. Residues, ends and D or L forms follow the SMILES beside them. *: point of attachment. OBn = c1ccc(CO*)cc1
Key:
Mus musculus [1] = assay: Toxicity in ICR mouse assessed as mortality up to 500 mg/kg, ip after 7 days; format: organism-based; design: dose 500 mg/kg, route intraperitoneal; details: in vivo, 168 h
Mus musculus [2] = assay: Toxicity in mouse S180 cells allografted ICR mouse assessed as brain weight at 8.9 mg/kg, ip qd for 7 days relative to control; format: organism-based, CCRF S-180; design: dose 8.9 mg/kg, route intraperitoneal; details: in vivo, 168 h
Mus musculus [3] = assay: Neurotoxicity in ICR mouse assessed as neurotoxic behavior up to 500 mg/kg, ip after 7 days; format: toxicity, organism-based; design: dose 500 mg/kg, route intraperitoneal; details: in vivo, 168 h
Mus musculus [4] = assay: Toxicity in mouse S180 cells allografted ICR mouse assessed as increase of body weight at 8.9 mg/kg, ip qd for 7 days relative to control; format: organism-based, CCRF S-180; design: dose 8.9 mg/kg, route intraperitoneal; details: in vivo, 168 h
CCRF S-180 [5] = assay: Antitumor activity against mouse S180 cells allografted in ICR mouse assessed as tumor growth inhibition at 8.9 mg/kg, ip qd for 7 days relative to control; format: functional; details: CCRF S-180, ip, 168 h, route intraperitoneal, read-out: TGI
Mus musculus [6] = assay: Toxicity in mouse S180 cells allografted ICR mouse assessed as liver weight at 8.9 mg/kg, ip qd for 7 days relative to control; format: organism-based, CCRF S-180; design: dose 8.9 mg/kg, route intraperitoneal; details: in vivo, 168 h
CCRF S-180 [7] = assay: Antiproliferative activity against mouse S180 cells after 48 hrs by MTT assay; format: functional, cell-based; details: CCRF S-180, 48 h
B16 = assay: Antiproliferative activity against mouse B16 cells after 48 hrs by MTT assay; format: functional, cell-based; details: B16, 48 h
H22 = assay: Antiproliferative activity against mouse H22 cells after 48 hrs by MTT assay; format: functional, cell-based; details: H22, 48 h
Mus musculus [8] = assay: Toxicity in mouse S180 cells allografted ICR mouse assessed as kidney weight at 8.9 mg/kg, ip qd for 7 days relative to control; format: organism-based, CCRF S-180; design: dose 8.9 mg/kg, route intraperitoneal; details: in vivo, 168 h
[9] = Acute toxicity in ip dosed ICR mouse after 7 days; format: organism-based; details: in vivo
Mus musculus [10] = assay: Toxicity in mouse S180 cells allografted ICR mouse assessed as spleen index at 8.9 mg/kg, ip qd for 7 days relative to control; format: organism-based, CCRF S-180; design: dose 8.9 mg/kg, route intraperitoneal; details: in vivo, 168 h
K562 = assay: Antiproliferative activity against human K562 cells after 48 hrs by MTT assay; format: functional, cell-based; details: K562, 48 h
HepG2 = assay: Antiproliferative activity against human HepG2 cells after 48 hrs by MTT assay; format: functional, cell-based; details: HepG2, 48 h
Mus musculus [11] = assay: Toxicity in ICR mouse assessed as changes in organs up to 500 mg/kg, ip after 7 days by necropsy analysis; format: organism-based; design: dose 500 mg/kg, route intraperitoneal; details: in vivo, 168 h
Calf thymus DNA [12] = assay: Binding affinity to 10 to 70 uM of calf thymus DNA assessed as decrease in fluorescence intensity at 50 uM by fluorescence spectra analysis; format: nucleic-acid assay; details: Bos taurus
Calf thymus DNA [13] = assay: Binding affinity to calf thymus DNA assessed as melting temperature at 10 uM; format: nucleic-acid assay; details: Bos taurus
CCRF S-180 [14] = assay: Antitumor activity against mouse S180 cells allografted in ICR mouse assessed as tumor growth inhibition at 0.089 mg/kg, ip qd for 7 days relative to control; format: functional; details: CCRF S-180, ip, 168 h, route intraperitoneal, read-out: TGI
CCRF S-180 [15] = assay: Antitumor activity against mouse S180 cells allografted in ICR mouse assessed as tumor growth inhibition at 0.89 mg/kg, ip qd for 7 days relative to control; format: functional; details: CCRF S-180, ip, 168 h, route intraperitoneal, read-out: TGI
Calf thymus DNA [16] = assay: Binding affinity to calf thymus DNA assessed as increase of DNA […] at compound-DNA ratio up to 0.36; format: nucleic-acid assay; details: Bos taurus
CCRF S-180 [17] = assay: Antitumor activity against mouse S180 cells allografted in ip dosed ICR mouse assessed as tumor growth inhibition administered qd for 7 days relative to control; format: functional, organism-based
Calf thymus DNA [18] = assay: Binding affinity to 70 uM of calf thymus DNA assessed as decrease in fluorescence intensity at 50 uM by fluorescence spectra analysis; format: nucleic-acid assay; design: scale not given: the % may be the effect or the level left; details: Bos taurus

| SMILES | Activity (Mus musculus [1]) | Activity (Mus musculus [2]) | Activity (Mus musculus [3]) | Activity (Mus musculus [4]) | inhibition in vivo at 8.9 mg/kg (CCRF S-180 [5]) [%] | Activity (Mus musculus [6]) | IC50 (CCRF S-180 [7]) [µM] | IC50 (B16) [µM] | IC50 (H22) [µM] | Activity (Mus musculus [8]) | LD50 at 168 h [9] [mg/kg] | Activity (Mus musculus [10]) | IC50 (K562) [µM] | IC50 (HepG2) [µM] | Activity (Mus musculus [11]) | inhibition in vivo at 0.089 mg/kg (CCRF S-180 [14]) [%] | inhibition in vivo at 0.89 mg/kg (CCRF S-180 [15]) [%] | also measured |
| --- | --- | --- | --- | --- | --- | --- | --- | --- | --- | --- | --- | --- | --- | --- | --- | --- | --- | --- |
| N[C@@H](CCC(=O)O)C(=O)N[C@@H](Cc1c[nH]c2ccccc12)C(=O)N[C@@H](Cc1c[nH]c2ccccc12)C(=O)OCc1ccccc1 (H-Glu-Trp-Trp-OBn) | Non-toxic | Non-toxic | Non-toxic | Toxic | 78.8 | Non-toxic | 16.6 | 21.4 | 14.7 | Non-toxic | > 500 | Non-toxic | 14.3 | 22.3 | Non-toxic |  |  |  |
| NC(=O)C[C@H](N)C(=O)N[C@@H](Cc1c[nH]c2ccccc12)C(=O)N[C@@H](Cc1c[nH]c2ccccc12)C(=O)OCc1ccccc1 (H-Asn-Trp-Trp-OBn) | Non-toxic | Non-toxic | Non-toxic | Toxic | 85.1 | Non-toxic | 13.5 | 13.8 | 11 | Non-toxic | > 500 | Non-toxic | 11 | 11.9 | Non-toxic | 26.6 | 46.7 | Activity (Calf thymus DNA [12]): Active; Tm (Calf thymus DNA [13]): 20.8 °C; Activity (Calf thymus DNA [16]): Active; TGI (CCRF S-180 [17]): Dose-dependent effect; Activity (Calf thymus DNA [18]): 35.3% |
| Nc1ccn([C@@H]2O[C@H](CO)[C@@H](O)[C@@H]2O)c(=O)n1 [CYTARABINE] |  |  |  |  | 31.9 |  | 40.3 | 49.2 | 37.8 |  |  |  | 43.6 | 38.1 |  | 7.86 | 20.6 |  |
| N[C@@H](Cc1ccccc1)C(=O)N[C@@H](Cc1c[nH]c2ccccc12)C(=O)N[C@@H](Cc1c[nH]c2ccccc12)C(=O)OCc1ccccc1 (H-Phe-Trp-Trp-OBn) | Non-toxic | Non-toxic | Non-toxic | Toxic | 24.7 | Non-toxic | 34 | 34 | 37.6 | Non-toxic | > 500 | Non-toxic | 43.7 | 41.2 | Non-toxic |  |  |  |
| N[C@@H](CO)C(=O)N[C@@H](Cc1c[nH]c2ccccc12)C(=O)N[C@@H](Cc1c[nH]c2ccccc12)C(=O)OCc1ccccc1 (H-Ser-Trp-Trp-OBn) | Non-toxic | Non-toxic | Non-toxic | Toxic | 48.2 | Non-toxic | 26.3 | 48.4 | 25.2 | Non-toxic | > 500 | Non-toxic | 25.6 | 25.9 | Non-toxic |  |  |  |
